Columns and labels:
[1] = Solubility in water; type: physicochemical
Source text: 55, no. 1, pp. 578-582] at physiological pH in the intestinal region.
For this reason, hydroalcoholic solutions are usually prepared dissolving an adequate amount of active substance in solubilizers such as water-soluble alcohols. However, the so prepared solutions have low stability because large amounts of budesonide are decomposed within a short time. Moreover, budesonide formulations have been prepared until now in the form of aqueous suspensions in which the solid phase tends in time to deposit onto the bottom of the container, thus requiring chemical additives or vigorous stirring. These are the reasons that make budesonide not suitable to be delivered by an electric nebulizer.
Budesonide 21-phosphate disodium salt has a much higher water solubility than Budesonide and Budesonide 21-phosphate.

[2] = Stability in aqueous solution at the concentration of use, room temperature; type: physicochemical; conditions: concentration of use 0.25 mg ml-4.0 mg ml
Experimental: At the concentration of use (0.25 mg ml-4.0 mg ml), it is rapidly soluble and remains stable at room temperature for long periods of time (12 months) without yellowing or precipitating.

[3] = ICH stability testing of budesonide 21-phosphate disodium salt (drug substance); type: physicochemical; conditions: for assay content by HPLC: specification 95.0-105.0%; for unknown impurities: specification ≤0.1%; for known impurities: specification ≤0.2%
Experimental: Purity was assessed through the HPLC method of the European Pharmacopoeia 1075-Budesonide-related substance. […]

[4] = background statement; cited from earlier work
[5] = background statement; cited from earlier work; remark: listed apart in the source
[6] = 40° C. and 75% RH (accelerated), Time 0
[7] = 40° C. and 75% RH (accelerated), Time 3 m
[8] = 40° C. and 75% RH (accelerated), Time 6 m

In the case of Budesonide 21-phosphate disodium salt, the water solubility [1] was 110 mg/mL, the “water solubility class” value ([1]; freely soluble = 100-1000 mg/mL) was “freely soluble in water” and the “period stable in solution without yellowing or precipitating” value [2] was 12 months. The “assay content by HPLC” value ([3]; 25° C. and 60% RH, Time 0) was 98.22%, the unknown impurities ([3]; 25° C. and 60% RH, Time 0) was 0.05% and the known impurities ([3]; 25° C. and 60% RH, Time 0) was 0.14%. For the same compound, the “assay content by HPLC” value ([3]; 25° C. and 60% RH, Time 3 m) was 98.10%, the unknown impurities ([3]; 25° C. and 60% RH, Time 3 m) was 0.05% and the known impurities ([3]; 25° C. and 60% RH, Time 3 m) was 0.14%. The “assay content by HPLC” value ([3]; 25° C. and 60% RH, Time 6 m) was 98.08%, the unknown impurities ([3]; 25° C. and 60% RH, Time 6 m) was 0.05% and the known impurities ([3]; 25° C. and 60% RH, Time 6 m) was 0.14%. For the same compound, the “assay content by HPLC” value ([3]; 25° C. and 60% RH, Time 9 m) was 97.85%, the unknown impurities ([3]; 25° C. and 60% RH, Time 9 m) was 0.08% and the known impurities ([3]; 25° C. and 60% RH, Time 9 m) was 0.15%. The “assay content by HPLC” value ([3]; 25° C. and 60% RH, Time 12 m) was 97.45%, the unknown impurities ([3]; 25° C. and 60% RH, Time 12 m) was 0.08% and the known impurities ([3]; 25° C. and 60% RH, Time 12 m) was 0.15%. For the same compound, the “assay content by HPLC” value ([3]; 30° C. and 65% RH, Time 0) was 98.22%, the unknown impurities ([3]; 30° C. and 65% RH, Time 0) was 0.05% and the known impurities ([3]; 30° C. and 65% RH, Time 0) was 0.14%. The “assay content by HPLC” value ([3]; 30° C. and 65% RH, Time 3 m) was 97.50%, the unknown impurities ([3]; 30° C. and 65% RH, Time 3 m) was 0.15% and the known impurities ([3]; 30° C. and 65% RH, Time 3 m) was 0.20%. For the same compound, the “assay content by HPLC” value ([3]; 30° C. and 65% RH, Time 6 m) was 97.28%, the unknown impurities ([3]; 30° C. and 65% RH, Time 6 m) was 0.15% and the known impurities ([3]; 30° C. and 65% RH, Time 6 m) was 0.25%. For the same compound, the “assay content by HPLC” value ([3]; 30° C. and 65% RH, Time 9 m) was 97.00%, the unknown impurities ([3]; 30° C. and 65% RH, Time 9 m) was 0.40% and the known impurities ([3]; 30° C. and 65% RH, Time 9 m) was 0.25%. The “assay content by HPLC” value ([3]; 30° C. and 65% RH, Time 12 m) was 94.55%, the unknown impurities ([3]; 30° C. and 65% RH, Time 12 m) was 0.40% and the known impurities ([3]; 30° C. and 65% RH, Time 12 m) was 0.30%. The “assay content by HPLC” value [3, 6] was 98.22%, the unknown impurities [3, 6] was <0.05% and the known impurities [3, 6] was 0.14%. The “assay content by HPLC” value [3, 7] was 96.50%, the unknown impurities [3, 7] was 2.45% and the known impurities [3, 7] was 0.30%. For the same compound, the “assay content by HPLC” value [3, 8] was 93.28%, the unknown impurities [3, 8] was 2.80% and the known impurities [3, 8] was 0.45%.

For `CCCC1OC2CC3C4CCC5=CC(=O)C=CC5(C)C4C(O)CC3(C)C2(C(=O)CO)O1` (stereo not drawn) [Budesonide, 1β,21-dihydroxy-16α, 17α-(butylidenebis(oxy)) pregna-1,4-diene-3,20-dione], the “solubility in water” value [4] is given as “virtually insoluble in water” and the “solubility in alcohols” value [5] is given as “readily soluble in alcohols”.
